{
  "source": "patent US9526707B2",
  "about": "“Methods for treating or preventing neuroinflammation or autoimmune diseases” (priority 2007, dated 2016)",
  "key": {"[1]": {"system": "T-cells in splenocytes from C57BL/6 mice", "experiment": "T-cell proliferation of CD3/CD28 stimulated splenocytes (BrdU)", "type": "cell-based, mouse", "details": "48 hours with compound, b156: at 100 μM", "description": "A series of in vitro experiments were conducted to ascertain the effect of Didox on immune function. A mixed splenocyte preparation was divided into two portions, one was stimulated with CD3 and CD28 to specifically activate T-cells while the other served as a control. The splenocytes were isolated from female C57BL/6 mice (6-8 weeks old) and the splenocytes were incubated for 24 hours with CD3/CD28 coated wells, after which Didox was added at varying concentrations. The cells were then incubated for an additional 48 hours. Each well was labeled with BrdU for the last 24 hours and the wells analyzed according to the manufacturer's instructions (Roche-Cell Proliferation Chemiluminescent assay kit). FIG. 7 depicts the results of these experiments. The solid black bars represent un-stimulated splenocytes while the white bars the effect of varying concentrations of Didox on the amount of T-Cells present."}, "[2]": {"system": "Experimental Autoimmune Encephalomyelitis (EAE) in C57BL/6 mice", "experiment": "Experimental Autoimmune Encephalomyelitis (EAE) model, treatment started two days prior to MOG booster", "type": "in vivo, mouse", "details": "for effect on EAE clinical symptoms (in words): treated versus control animals, FIG. 1, 3, 4, 5", "excerpt": "(§1) One method of showing the efficacy of the disclosed compounds for the treatment of various conditions associated with multiple sclerosis (MS) is its ability to inhibit effects of Experimental Autoimmune Encephalomyelitis (EAE) in laboratory animals. EAE is an animal model for MS, which entails inducing a T-cell-mediated autoimmune disease against myelin basic protein in certain susceptible mammalian species. The EAE model is an appropriate method for studying the inflammation of the brain and spinal cord associated with MS (see Bolton, C. Mult. Scler. 1995; 1(3); 143-9). […] The symptoms that are observed in animals vary from mild gait disturbances and tail atony to complete paralysis and death. These clinical manifestations are given a clinical score ranging from 0 to 5. In the present situation, the scores were based on the following criteria: clinical score 0, no signs; 1.0 limp tail; 2.0 limptail with loss of righting; 3.0 paralysis of single hind limb; 4.0 paralysis of both hind limbs; 5.0 death. Weight loss typically occurs. In animals that survive, spontaneous recovery occurs, accompanied by variable recovery of most motor function. Depending on the species, allergen, and methodology used, animals tested by the EAE model may experience a single (acute EAE) or several (chronic relapsing EAE) attacks.\nExperimental autoimmune encephalomyelitis was induced in C57BL/6 mice using the following protocol. Female C57BL/6 mice (6-8 weeks old, N=24) purchased from Jackson Labs, were allowed to acclimate for one week prior to EAE induction. EAE was induced using myelin oligodendrocyte glycoprotein peptide 35-55 (MOG35-55, MEVGWYRSPFSRVVHL-YRNGK). The MOG35-55 injection with Freund's adjuvant was administered subcutaneously adjacent to the hind leg. At the same time, the animals received an injection of pertussis toxin (200 ng in 200 μL phosphate buffered saline (PBS), intraperitoneally), and a second pertussis toxin injection two days later. Mice were given a booster injection of MOG35-55 at day No. 7. Two or three days after the second MOG booster injection, some animals begin to show signs of EAE. The mice are monitored daily using the clinical scoring system described above.\nIn addition, Didox delayed the onset of the disease in the minority of animals in which it occurred in the Didox treatment group, 7.3 days versus 4.4 days for the control group. […] For example, at the plateau of the clinical condition on day 12 for both the Didox and saline (control) group, represented by the open squares ? the mean clinical score was only 0.45 for the Didox treated cohort compared to a score of 1.9 for the control group. […]"}, "[3]": {"system": "activated microglia isolated from rat brain", "experiment": "Nitrite production by LPS-activated microglia", "type": "cell-based", "excerpt": "To further evaluate the beneficial effect of Didox on brain tissue, we analyzed the ability of Didox to attenuate the production of nitrite by activated microglia, which are major contributors to the inflammatory status of EAE mice. Microglia were isolated from rat brain and activated with lipopolysaccharide (LPS) in the presence or absence of increasing concentrations of Didox. […] This observation, together with the attenuation of the T-cell inflammatory response would both contribute to the biological activity of Didox to reduce the severity of EAE."}, "EAE mice": {"system": "EAE mice", "experiment": "EAE model, treatment started when mice had reached clinical stage 2 or more (clinical score)", "type": "in vivo, mouse", "details": "treatment begun at clinical stage 2 or more"}, "mouse cytokines in serum": {"system": "mouse cytokines in serum", "experiment": "Serum cytokine levels in EAE mice, BioPlex multiplexable bead assay", "type": "in vivo", "description": "The effect of Didox on cytokine levels was tested. As before, two groups were assembled, one treated with Didox while the other group served as a control and only received saline injections. […] EAE was initiated in all animals depicted at the same time and in an identical manner. All animals were of the same experimental time point at the time of serum collection for cytokine analysis. The Didox treated group experienced a decrease of two points in the EAE clinical score. The analysis of cytokine levels was performed by utilizing a BioPlex® multiplexable bead assay method that simultaneously quantitates mouse cytokines in diverse matrices. In this example the assay was carried out on serum derived from mice of the two groups (Didox and saline treated) at day 12 post MOG induced EAE. Blood was obtained by cardiac aspiration from mice that had been euthanized by CO2. Serum was obtained from clotted blood after centrifugation and stored at […] until assayed. For analysis the serum was diluted and analyzed with the Bio-Plex® assay system. The system utilized beads that are internally labeled with two fluorescent dyes (one for identification of the bead and one for covalent attachment of ligands (or biomolecules). Once an antibody was conjugated to the bead a sample of serum was added and followed by a reporter antibody that is often biotinylated. Following incubation with biotinylated reporter antibody, strepavidin/phycoerythrin was added to make detection possible. The system can profile up to 23 mouse cytokines. Table B indicates the amount of cytokine present (pg/mL) in the serum."}, "[4]": {"system": "Experimental Autoimmune Encephalomyelitis (EAE) in C57BL/6 mice", "experiment": "EAE model, treatment started at day 16 after MOG booster (established symptoms)", "type": "in vivo, mouse", "details": "250 mg/kg intraperitoneally, started 16 days after MOG35-55 booster", "excerpt": "as §1, with “attacks. […]” for “attacks.”"}, "activated T-cells": {"system": "activated T-cells", "experiment": "Secretion of inflammatory cytokines by activated T-Cells in vitro", "type": "cell-based", "excerpt": "The purpose of this example was to determine whether Didox treatment of T-Cells in vitro produced similar data as was found in vivo using the EAE model."}, "[5]": {"details": "clinical score 0 to 5, treated from day -2 before MOG booster"}, "[6]": {"details": "serum, treated versus saline treated EAE mice"}, "[7]": {"details": "48 hours treatment of activated T-cells, even at 5 μM"}},
  "note": "Entries after “also recorded” stand apart in the source; their conditions may differ. Structures can show the parent of a compound that is named as a salt.",
  "data": [
    {"smiles": "NC(=NO)c1ccc(O)c(O)c1", "note": "(as salt: hydrochloride) [Example I, 3,4-dihydroxybenzamidoxime]", "values": [
      {"measurement": "melting point", "result": "193 °C (dec.)"}
    ]},
    {"smiles": "O=C(NO)c1ccc(O)c(O)c1", "note": "[Didox, N,3,4-trihydroxybenzamide]", "values": [
      {"measurement": "level of T-Cell proliferation", "setting": "[1]", "result": "reduces the level of T-cells to the amount present in un-stimulated cells; also recorded: reduced to that for un-stimulated cells"},
      {"measurement": "Max. Score", "setting": "[2]; [5]", "result": 3},
      {"measurement": "Max. Score (mean +/− SEM)", "setting": "[2]; [5]", "result": "0.45 +/− 0.31"},
      {"measurement": "percentage of animals that exhibited any clinical symptom of the disease", "setting": "[2]; control 78%", "result": 27, "unit": "%"},
      {"measurement": "mean clinical score", "setting": "[2]; day 12, plateau of the clinical condition, control 1.9", "result": 0.45},
      {"measurement": "onset of the disease", "setting": "[2]; in the minority of animals in which it occurred, control 4.4 days", "result": 7.3, "unit": "days"},
      {"measurement": "Day of Disease Onset", "setting": "[2]; treated from day -2 before MOG booster", "result": "7.33 +/− 1.73"},
      {"measurement": "effect on EAE clinical symptoms (in words)", "setting": "[2]", "result": "reduced the severity and delayed the onset of the clinical manifestation of the disease"},
      {"measurement": "nitrite production", "setting": "[3]; 100 μM treatment", "result": "reached base line levels"},
      {"measurement": "nitrite production, dose dependence", "setting": "[3]; increasing concentrations", "result": "dose dependent attenuation of nitrite production"},
      {"measurement": "decrease in the EAE clinical score", "setting": "EAE mice", "result": "two"},
      {"measurement": "IL-4 in serum", "setting": "mouse cytokines in serum; day 12 post MOG induced EAE, control 0 ± 0", "result": "0 ± 0", "unit": "pg/mL"},
      {"measurement": "IL-2 in serum", "setting": "mouse cytokines in serum; day 12 post MOG induced EAE, control 2 ± 2", "result": "0.7 ± 0.2", "unit": "pg/mL"},
      {"measurement": "IL-5 in serum", "setting": "mouse cytokines in serum; day 12 post MOG induced EAE, control 6 ± 5", "result": "2 ± 1", "unit": "pg/mL"},
      {"measurement": "GM-CSF in serum", "setting": "mouse cytokines in serum; day 12 post MOG induced EAE, control 7 ± 4", "result": "0.4 ± 0.5", "unit": "pg/mL"},
      {"measurement": "IFN-g in serum", "setting": "mouse cytokines in serum; day 12 post MOG induced EAE, control 10 ± 3", "result": "3 ± 1", "unit": "pg/mL"},
      {"measurement": "IL-10 in serum", "setting": "mouse cytokines in serum; day 12 post MOG induced EAE, control 16 ± 7", "result": "3 ± 1", "unit": "pg/mL"},
      {"measurement": "IL-17 in serum", "setting": "mouse cytokines in serum; day 12 post MOG induced EAE, control 83 ± 29", "result": "2 ± 0.2", "unit": "pg/mL"},
      {"measurement": "TNF-α in serum", "setting": "mouse cytokines in serum; day 12 post MOG induced EAE, control 219 ± 132", "result": "61 ± 46", "unit": "pg/mL"},
      {"measurement": "IL-12 in serum", "setting": "mouse cytokines in serum; day 12 post MOG induced EAE, control 559 ± 276", "result": "36 ± 14", "unit": "pg/mL"},
      {"measurement": "reduction for IL-12", "setting": "mouse cytokines in serum; [6]", "result": 15, "unit": "fold"},
      {"measurement": "reduction for Il-10", "setting": "mouse cytokines in serum; [6]", "result": 5.0, "unit": "fold"},
      {"measurement": "reduction for TNF levels", "setting": "mouse cytokines in serum; [6]", "result": 3.5, "unit": "fold"},
      {"measurement": "reduction in IL-17", "setting": "mouse cytokines in serum; [6]", "result": "approximately 35 fold"},
      {"measurement": "reduction in average clinical score", "setting": "[4]", "result": "more than 50%"},
      {"measurement": "secretion of IFNγ", "setting": "activated T-cells; 24 hours treatment", "result": "does not reduce the levels of these cytokines to background; also recorded: reduced to less than half the level secreted by the untreated activated T-cells"},
      {"measurement": "secretion of IL-17", "setting": "activated T-cells; 24 hours treatment", "result": "does not reduce the levels of these cytokines to background"},
      {"measurement": "secretion of IFNγ", "setting": "activated T-cells; [7]", "result": "down to baseline levels"},
      {"measurement": "secretion of IL-17", "setting": "activated T-cells; [7]", "result": "down to baseline levels"}
    ]},
    {"smiles": "NC(=O)NO", "note": "[hydroxyurea, reference compound]", "values": [
      {"measurement": "effect on EAE clinical symptoms (in words)", "setting": "[2]", "result": "did not show evidence of treating neurodegenerative diseases"}
    ]}
  ]
}
